Measured values: patent publication US7030265B2, “Retinol derivatives, the method of preparations and the uses thereof” (Chebigen, Inc., priority 2001, dated 2006)
Values joined by “and” are separate entries in the source; they are usually repeats but may differ in a detail not shown here. Equal entries are not always repeated.

What was measured:
Type in all cases: cell-based
[1] = system: activation protein-1 (AP-1); assay: Activity inhibition test of AP-1, Coll-CAT reporter in Cos-1 cells; conditions: for lowered the expression of collagenase (Coll-CAT): expression level in the presence of c-Jun expression set as 100%; for effect on AP-1 activity inhibition, compared in words: Coll-CAT
From the text: CAT reporter (Coll-CAT) containing collagen promoter including AP-1 transcription factor binding site (TRE) was utilized to transfect Cos-1 cell line. Activity inhibition tests of activation protein-1 (AP-1) similar to the experimental example 6 were proceeded.

[2] = system: activation protein-1 (AP-1); assay: Activity inhibition test of AP-1, Coll-CAT reporter in HaCAT cells; conditions: c-Jun expression, in the presence of retinoic acid receptor α, CAT ELISA, FIG. 6
Method: Since the activation protein-1 (c-Jun is the constituent of AP-1) is transcription factor inducing expression of collagenase enzyme, which is a major cause of skin wrinkle, the effect of wrinkle prevention was determined by the activity inhibition test of AP-1.
CAT reporter (Coll-CAT) containing collagen promoter including AP-1 transcription factor binding site (TRE) were utilized to cotransfect skin cancer (HaCAT) cell line. The effect of retinol derivatives on the activity of AP-1 was measured by CAT ELISA. In some cases, the vector expressing c-Jun or retinoic acid receptors were utilized to cotransfect, and the effect of retinol derivatives on the transcription activity of c-Jun was analyzed.
With the assumption of the prepared retinol-(N-formyl-aspartam) derivatives which inhibit the activity of AP-1 causing skin wrinkle, would have the utility for cosmetics, the related investigations were proceeded. Similar to the experiment of retinoic acid receptor, AP-1 (c-jun) expression vector and Coll-CAT plasmid for the activity measurement were introduced into the skin cancer (HaCAT) cell line with liposome. After treating the cells with retinol-(N-formyl-aspartam) derivatives, the cell extracts were isolated. The expression level of CAT were measured with CAT ELISA to determine the effect of retinol-(N-formyl-aspartam) on the activity of the AP-1.

retinoic acid receptor α [3] = target: T1, retinoic acid receptor α (Homo sapiens, UniProt P10276); assay: RAR activity test, DR5-tk-CAT reporter in Cos-1 cells; conditions: 1 μM, CAT ELISA, FIG. 3-5
T1 construct: expressed in transfected cells; b135 says HaCAT
T1 sequence (P10276 1-462): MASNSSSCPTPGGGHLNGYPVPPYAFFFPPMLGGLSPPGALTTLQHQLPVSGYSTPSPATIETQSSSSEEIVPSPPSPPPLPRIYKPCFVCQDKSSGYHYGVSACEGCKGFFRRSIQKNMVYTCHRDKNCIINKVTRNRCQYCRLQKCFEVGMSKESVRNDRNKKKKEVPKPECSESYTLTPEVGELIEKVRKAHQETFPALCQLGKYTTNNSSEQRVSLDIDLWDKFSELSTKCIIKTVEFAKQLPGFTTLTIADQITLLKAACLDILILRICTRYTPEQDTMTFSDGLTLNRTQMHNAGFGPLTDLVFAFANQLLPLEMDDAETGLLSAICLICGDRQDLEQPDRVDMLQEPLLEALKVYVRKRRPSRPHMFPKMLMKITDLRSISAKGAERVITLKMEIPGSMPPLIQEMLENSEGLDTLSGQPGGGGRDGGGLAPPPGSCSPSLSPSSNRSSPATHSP
From the text: Recombinant DNA, DR5-tk-CAT consisting of DR5, effectors of retinoic acid receptor/retinoid X receptor, thymine kinase promoter, and CAT (chloramphenicol acetyl transferase) were mixed with the plasmid DNA expressing retinoic acid receptor α, β, ? and utilized to cotransfect skin cancer (HaCAT) cell line with lipofectamine (GibcoBRL). […] The cells were washed with phosphate-buffered saline (PBS), and the proteins were isolated from each cells, and the activity of β-galactosidase and protein contents were measured to determine transfection efficacy, the transcription level of RAR receptor were measured with CAT ELISA.
(§1) All procedures were done as Experimental Example 3.
as §1

retinoic acid receptor β = target: T2, retinoic acid receptor β (Homo sapiens, UniProt P10826); assay: as above; conditions: 1 μM, CAT ELISA, FIG. 3-5
T2 construct: expressed in transfected cells; b135 says HaCAT
T2 sequence (P10826 1-455): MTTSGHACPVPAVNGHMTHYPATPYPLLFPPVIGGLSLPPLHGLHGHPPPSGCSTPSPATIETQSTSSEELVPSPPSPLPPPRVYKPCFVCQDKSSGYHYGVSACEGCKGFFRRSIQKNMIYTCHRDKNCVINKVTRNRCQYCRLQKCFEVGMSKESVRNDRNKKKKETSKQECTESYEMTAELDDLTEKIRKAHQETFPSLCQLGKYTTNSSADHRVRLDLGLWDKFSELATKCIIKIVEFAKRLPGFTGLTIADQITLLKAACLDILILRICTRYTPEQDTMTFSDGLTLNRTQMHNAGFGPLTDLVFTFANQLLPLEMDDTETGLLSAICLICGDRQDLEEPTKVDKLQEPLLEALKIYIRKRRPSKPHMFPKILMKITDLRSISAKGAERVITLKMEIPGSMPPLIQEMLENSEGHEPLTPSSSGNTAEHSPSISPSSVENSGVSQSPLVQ

retinoic acid receptor γ = target: T3, retinoic acid receptor γ (Homo sapiens, UniProt P13631); assay: as above; conditions: 1 μM, CAT ELISA, FIG. 3-5
T3 construct: expressed in transfected cells; b135 says HaCAT
T3 sequence (P13631 1-454): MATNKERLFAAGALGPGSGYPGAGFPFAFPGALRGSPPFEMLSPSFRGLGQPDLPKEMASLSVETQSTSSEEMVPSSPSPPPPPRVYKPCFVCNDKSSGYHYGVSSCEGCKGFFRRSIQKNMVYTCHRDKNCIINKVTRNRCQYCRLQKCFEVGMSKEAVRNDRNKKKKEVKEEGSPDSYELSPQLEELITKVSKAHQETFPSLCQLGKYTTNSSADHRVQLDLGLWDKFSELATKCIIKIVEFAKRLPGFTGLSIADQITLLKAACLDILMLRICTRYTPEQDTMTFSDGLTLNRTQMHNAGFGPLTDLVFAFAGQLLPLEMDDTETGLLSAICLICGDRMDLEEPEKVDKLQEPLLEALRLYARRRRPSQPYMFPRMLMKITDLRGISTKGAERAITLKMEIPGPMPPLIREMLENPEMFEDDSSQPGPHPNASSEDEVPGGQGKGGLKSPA

retinoid X receptor γ = target: T4, retinoid X receptor γ (Homo sapiens, UniProt P48443); assay: RXR activity test, DR1-tk-CAT reporter in HaCAT cells; conditions: 1 μM, CAT ELISA, FIG. 2 (B)
T4 construct: expressed in transfected cells; host or cells: HaCAT
T4 sequence (P48443 1-463): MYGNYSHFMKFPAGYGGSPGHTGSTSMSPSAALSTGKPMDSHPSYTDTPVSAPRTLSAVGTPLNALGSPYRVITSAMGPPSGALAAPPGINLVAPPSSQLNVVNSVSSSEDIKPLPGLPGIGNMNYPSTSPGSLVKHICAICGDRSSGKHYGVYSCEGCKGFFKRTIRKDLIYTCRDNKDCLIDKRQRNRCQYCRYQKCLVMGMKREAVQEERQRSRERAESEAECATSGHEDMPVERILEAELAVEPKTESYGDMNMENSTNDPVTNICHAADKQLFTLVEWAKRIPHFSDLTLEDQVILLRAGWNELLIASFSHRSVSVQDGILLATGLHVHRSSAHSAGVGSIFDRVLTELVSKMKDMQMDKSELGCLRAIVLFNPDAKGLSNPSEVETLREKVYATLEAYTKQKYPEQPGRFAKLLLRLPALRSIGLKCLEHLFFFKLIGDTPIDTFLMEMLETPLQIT
From the text: (§2) To analyze the effects of retinol-(N-formyl-aspartam) on the activity of retinoic acid receptor, skin cancer (HaCAT) cell lines were utilized to measure the activity of retinoic acid receptor/retinoid X receptor.
(§3) Recombinant DNA, DR5-tk-CAT or DR1-tk-CAT consisting of DR1 or DR5, effectors of retinoic acid receptor/retinoid X receptor, thymine kinase promoter, and CAT(chloramphenicol acetyl transferase) were mixed with the plasmid DNA expressing retinoic acid receptor α, β, ? or retinoid X receptor α, β, ? to cotransfect skin cancer (HaCAT) cell line with lipofectamine (GibcoBRL). The cotransfected cell lines were cultured for 1 day on DMEM/10% FBS media, each retinol derivatives (1 μM) were added and cultured for one more day, 5% CO2, 37° C. The cells were washed with phosphate-buffered saline (PBS), and the proteins were isolated from each cells, and the activity of β-galactosidase and protein contents were measured to determine transfection efficacy, the transcription level of RAR or RXR receptor were measured with CAT ELISA (Roche Molecular Biochemical, Mannheim, Germany).

retinoid X receptor α = target: T5, retinoid X receptor α (Homo sapiens, UniProt P19793); assay: as above; conditions: 1 μM, CAT ELISA, FIG. 2 (B)
T5 construct: expressed in transfected cells; host or cells: HaCAT
T5 sequence (P19793 1-462): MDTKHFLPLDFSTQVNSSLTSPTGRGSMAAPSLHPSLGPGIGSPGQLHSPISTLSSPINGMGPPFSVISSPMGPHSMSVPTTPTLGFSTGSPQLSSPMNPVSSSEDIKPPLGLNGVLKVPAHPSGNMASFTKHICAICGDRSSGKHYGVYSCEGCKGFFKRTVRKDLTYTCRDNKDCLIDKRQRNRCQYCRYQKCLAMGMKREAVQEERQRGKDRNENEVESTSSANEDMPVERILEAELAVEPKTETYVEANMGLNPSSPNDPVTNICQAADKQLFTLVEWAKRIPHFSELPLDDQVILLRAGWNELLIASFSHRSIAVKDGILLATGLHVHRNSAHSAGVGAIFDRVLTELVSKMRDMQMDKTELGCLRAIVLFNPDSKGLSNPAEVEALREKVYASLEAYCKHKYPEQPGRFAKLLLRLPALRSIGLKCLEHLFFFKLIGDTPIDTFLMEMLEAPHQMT
From the text: as §2, §3

retinoid X receptor β = target: T6, retinoid X receptor β (Homo sapiens, UniProt P28702); assay: as above; conditions: 1 μM, CAT ELISA, FIG. 2 (B)
T6 construct: expressed in transfected cells; host or cells: HaCAT
T6 sequence (P28702 1-533): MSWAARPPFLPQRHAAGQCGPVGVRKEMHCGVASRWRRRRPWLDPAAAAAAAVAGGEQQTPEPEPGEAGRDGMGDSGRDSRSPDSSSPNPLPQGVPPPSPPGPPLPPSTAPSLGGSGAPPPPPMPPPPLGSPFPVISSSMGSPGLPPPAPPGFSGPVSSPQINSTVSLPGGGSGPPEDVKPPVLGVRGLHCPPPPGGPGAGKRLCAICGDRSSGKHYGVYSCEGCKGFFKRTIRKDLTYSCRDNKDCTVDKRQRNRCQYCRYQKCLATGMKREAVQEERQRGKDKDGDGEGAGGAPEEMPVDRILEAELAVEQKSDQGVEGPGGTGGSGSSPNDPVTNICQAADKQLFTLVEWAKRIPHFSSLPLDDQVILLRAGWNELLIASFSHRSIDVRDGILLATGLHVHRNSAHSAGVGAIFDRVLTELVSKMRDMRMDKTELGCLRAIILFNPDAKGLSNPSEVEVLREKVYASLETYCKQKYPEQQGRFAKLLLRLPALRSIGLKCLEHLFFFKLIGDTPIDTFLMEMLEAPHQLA
From the text: as §2, §3

retinoic acid receptor α [4] = target: T1, retinoic acid receptor α; assay: RAR activity test, DR5-tk-CAT reporter in HaCAT cells; conditions: 1 μM, CAT ELISA, FIG. 2 (A)
From the text: as §2, §3
To determine the effect of retinol-(N-formyl-aspartam) on retinoic acid receptors, each retinoic acid receptor (α, β, or ? ) expression vector and activity measuring DR5-tk-CAT plasmid were introduced with liposome. After treating cells with retinol-(N-formyl-aspartam), the cell extracts were isolated. The expression level of CAT were measured with CAT ELISA to determine the effect of retinol-(N-formyl-aspartam) on the activity of retinoic acid receptors.

CC1=C(/C=C/C(C)=C/C=C/C(C)=C/C(=O)O)C(C)(C)CCC1 [retinoic acid, reference compound]
lowered the expression of collagenase (Coll-CAT) [1]: ~50% and ~47.5%
lowered the expression of collagenase (Coll-CAT) [2]: approximately 60%

CC1=C(/C=C/C(C)=C/C=C/C(C)=C/COC(=O)/C=C/C(=O)OC/C=C(C)/C=C/C=C(C)/C=C/C2=C(C)CCCC2(C)C)C(C)(C)CCC1 [retinol-(fumalic acid), Di[(2E,4E,6E,8E)-3,7-dimethyl-9-(2,6,6-trimethyl-1-cyclohexenyl)-2,4,6,8-nonatetraenyl] (E)-2-butenedioate]
effect on AP-1 activity inhibition, compared in words [1]: no significant effect on AP-1 activity inhibition than retinoic acid or retinol
lowered the expression of collagenase (Coll-CAT) [1]: approximately 42%
activation of retinoic acid receptor α (retinoic acid receptor α [3]): high activation
activation of retinoic acid receptor β (retinoic acid receptor β): weak activation
activation of retinoic acid receptor γ (retinoic acid receptor γ): weak activation

CC1=C(/C=C/C(C)=C/C=C/C(C)=C/COC(=O)/C=C(\C)C(=O)OC/C=C(C)/C=C/C=C(C)/C=C/C2=C(C)CCCC2(C)C)C(C)(C)CCC1 [retinol-(mesaconic acid), Di[(2E,4E,6E,8E)-3,7-dimethyl-9-(2,6,6-trimethyl-1-cyclohexenyl)-2.4,6,8-nonatetraenyl] (E)-2-methyl-2-butenedioate]
effect on AP-1 activity inhibition, compared in words [1]: less effect on AP-1 activity inhibition than retinoic acid or retinol
lowered the expression of collagenase (Coll-CAT) [1]: ~30%

CC1=C(/C=C/C(C)=C/C=C/C(C)=C/COC/C=C(C)/C=C/C=C(C)/C=C/C2=C(C)CCCC2(C)C)C(C)(C)CCC1 [retinol-(retinol), (1E,3E,5E,7E)-9[(2E,4E,6E,8E)-3,7-dimethyl-9-(2,6,6-trimethyl-1-cyclohexenyl)-2,4,6,8-nonatetraenyl]oxy-3,7-dimethyl-1-(2,6,6-trimethyl-1-cyclohexenyl)-1,3,5,7-nonateraene]
lowered the expression of collagenase (Coll-CAT) [1]: ~41.5%
activation of retinoic acid receptor α (retinoic acid receptor α [3]): high activation
activation of retinoic acid receptor β (retinoic acid receptor β): weak activation
activation of retinoic acid receptor γ (retinoic acid receptor γ): weak activation

CC1=C(/C=C/C(C)=C/C=C/C(C)=C/CO)C(C)(C)CCC1 [retinol]
lowered the expression of collagenase (Coll-CAT) [1]: approximately 43%
activation of retinoic acid receptor α (retinoic acid receptor α [3]): high activation
activation of retinoid X receptor γ (retinoid X receptor γ): no activation
activation of retinoid X receptor α (retinoid X receptor α): no activation
activation of retinoid X receptor β (retinoid X receptor β): no activation
activation of retinoic acid receptor α (retinoic acid receptor α [4]): high activation
lowered the expression of collagenase (Coll-CAT) [2]: approximately 47%
